#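 Five concentrations, 48 hours, 96-well plates. GI50: concentration for 50% inhibition of growth.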 Calls of active or inactive are those of the source. No stated cut-off is given here; in the data, active = GI50 up to about 1.1 µM and inactive = higher.
# How the values were obtained:
# Assay in all cases: NCI-60 cell line screen, 48 h
# 786-0 = tested on: 786-0
# A498 = tested on: A498
# A549 = tested on: A549
# ACHN = tested on: ACHN
# CCRF-CEM = tested on: CCRF-CEM
# COLO 205 = tested on: COLO 205
# DMS-273 = tested on: DMS-273
# EKVX = tested on: EKVX
# HCC 2998 = tested on: HCC 2998
# HCT-116 = tested on: HCT-116
# HCT-15 = tested on: HCT-15
# HL-60 = tested on: HL-60
# HOP-18 = tested on: HOP-18
# HOP-62 = tested on: HOP-62
# HOP-92 = tested on: HOP-92
# HT-29 = tested on: HT-29
# IGROV-1 = tested on: IGROV-1
# K562 = tested on: K562
# KM-20L2 = tested on: KM-20L2
# KM12 = tested on: KM12
# LOX IMVI = tested on: LOX IMVI
# M14 = tested on: M14
# M19-MEL = tested on: M19-MEL
# MOLT-4 = tested on: MOLT-4
# Malme-3M = tested on: Malme-3M
# NCI-H226 = tested on: NCI-H226
# NCI-H23 = tested on: NCI-H23
# NCI-H460 = tested on: NCI-H460
# NCI-H522 = tested on: NCI-H522
# OVCAR-3 = tested on: OVCAR-3
# OVCAR-4 = tested on: OVCAR-4
# OVCAR-8 = tested on: OVCAR-8
# RPMI-8226 = tested on: RPMI-8226
# RXF 393 = tested on: RXF 393
# RXF 631 = tested on: RXF 631
# SF-268 = tested on: SF-268
# SF-295 = tested on: SF-295
# SF-539 = tested on: SF-539
# SK-MEL-28 = tested on: SK-MEL-28
# SK-MEL-2 = tested on: SK-MEL-2
# SK-MEL-5 = tested on: SK-MEL-5
# SK-OV-3 = tested on: SK-OV-3
# SN12C = tested on: SN12C
# SNB-19 = tested on: SNB-19
# SNB-75 = tested on: SNB-75
# SNB-78 = tested on: SNB-78
# SW-620 = tested on: SW-620
# TK-10 = tested on: TK-10
# U-251 = tested on: U-251
# UACC-257 = tested on: UACC-257
# UACC-62 = tested on: UACC-62
# UO-31 = tested on: UO-31
# XF498 = tested on: XF498
compound,measurement,setting,value
C[C@@H](c1ccccc1)N(CC#N)C1CCC[C@H]1O (stereo partly drawn),GI50,786-0,> 100 µM (inactive)
same,GI50,A498,> 100 µM (inactive)
same,GI50,A549,> 100 µM (inactive)
same,GI50,ACHN,> 100 µM (inactive)
same,GI50,CCRF-CEM,> 100 µM (inactive)
same,GI50,COLO 205,> 100 µM (inactive)
same,GI50,DMS-273,> 100 µM (inactive)
same,GI50,EKVX,> 100 µM (inactive)
same,GI50,HCC 2998,> 100 µM (inactive)
same,GI50,HCT-116,> 100 µM (inactive)
same,GI50,HCT-15,> 100 µM
same,GI50,HL-60,> 100 µM (inactive)
same,GI50,HOP-18,> 100 µM (inactive)
same,GI50,HOP-62,> 100 µM (inactive)
same,GI50,HOP-92,> 100 µM (inactive)
same,GI50,HT-29,> 100 µM (inactive)
same,GI50,IGROV-1,> 100 µM (inactive)
same,GI50,K562,> 100 µM (inactive)
same,GI50,KM-20L2,> 100 µM (inactive)
same,GI50,KM12,> 100 µM (inactive)
same,GI50,LOX IMVI,> 100 µM (inactive)
same,GI50,M14,> 100 µM (inactive)
same,GI50,M19-MEL,> 100 µM (inactive)
same,GI50,MOLT-4,> 100 µM (inactive)
same,GI50,Malme-3M,> 100 µM (inactive)
same,GI50,NCI-H226,> 100 µM (inactive)
same,GI50,NCI-H23,> 100 µM (inactive)
same,GI50,NCI-H460,> 100 µM (inactive)
same,GI50,NCI-H522,> 100 µM (inactive)
same,GI50,OVCAR-3,> 100 µM (inactive)
same,GI50,OVCAR-4,> 100 µM (inactive)
same,GI50,OVCAR-8,> 100 µM (inactive)
same,GI50,RPMI-8226,> 100 µM (inactive)
same,GI50,RXF 393,> 100 µM (inactive)
same,GI50,RXF 631,> 100 µM (inactive)
same,GI50,SF-268,> 100 µM (inactive)
same,GI50,SF-295,> 100 µM (inactive)
same,GI50,SF-539,> 100 µM (inactive)
same,GI50,SK-MEL-28,> 100 µM (inactive)
same,GI50,SK-MEL-2,> 100 µM (inactive)
same,GI50,SK-MEL-5,> 100 µM (inactive)
same,GI50,SK-OV-3,> 100 µM (inactive)
same,GI50,SN12C,> 100 µM (inactive)
same,GI50,SNB-19,> 100 µM (inactive)
same,GI50,SNB-75,> 100 µM (inactive)
same,GI50,SNB-78,> 100 µM (inactive)
same,GI50,SW-620,> 100 µM (inactive)
same,GI50,TK-10,> 100 µM (inactive)
same,GI50,U-251,> 100 µM (inactive)
same,GI50,UACC-257,> 100 µM (inactive)
same,GI50,UACC-62,> 100 µM (inactive)
same,GI50,UO-31,> 100 µM (inactive)
same,GI50,XF498,> 100 µM (inactive)
